Data on 5 compounds can be found in patent US8329741B2, “Substituted pyrrolidine compounds with central nervous system activity” (The Research Foundation of State University of New York, priority 2007, dated 2012).

For one series, the system named is chakragati (ckr) mice. Put plainly: Screening of candidate compounds based on motor activity in ckr mice. The conditions noted are these: for overall biological activity: based on receptor binding data and ckr mouse screening data (FIGS. 1 and 2, ANOVA). In kind it is in vivo, mouse. How it is done:
To test the effect of compounds, including compounds of the present invention, on CNS function, chakragati (ckr) mice were used as a model. The DC series compounds were tested on motor activity and PPI in ckr mice.
(§1) Stock solutions of the drugs (DC1 to DC20) were dissolved in DMSO, and then diluted to 10 mg/10 mL with distilled water such that the final concentration of DMSO was 0.5%. Each animal received 10 mg/kg of the test drug in a volume of 0.1 mL per 10 g. […] These compounds were sonicated for 30 minutes in DMSO, acidified to pH 4 to 5 by drop-wise addition of 1M HCl, and then suspended in 20% cyclodextrin solution.
Twenty ckr mice (male and female, 3 months old) were randomly assigned to receive test drugs or 0.5% DMSO vehicle. Each drug was tested in 5 mice. Each mouse received up to 5 randomly assigned drugs in random order. Each treatment was separated by a minimum washout period of 3 days. On the day of testing, mice were brought into the behavioral test room and allowed to acclimatize for at least 1 hour. They then received intraperitoneal injections of the 0.1 mL/10 g (10 mg/kg) of the test drug solutions or vehicle.
They were returned to their cage and 20 minutes later they were placed in a 190 mm diameter, 300 mm deep circular recording chamber. Four mice were tested simultaneous in 4 separate chambers. Between each testing session the chambers were wiped down with 70% ethanol and allowed to dry for at least 10 minutes The mice were monitored with an overhead video camera for 15 min. Their behavior was videotaped and simultaneously digitized and tracked (Ethovision Version 2, Noldus). The total distance moved, the velocity of movement, and the time spent moving were calculated.
The data for each parameter were separately analyzed by one-way ANOVA (Analysis of Variance) and post hoc Dunnett's comparisons with the vehicle-treated control group. Tukey's HSD test was applied for post hoc comparisons between groups. p<0.05 was considered statistically significant.

Series [1] in a line: Preparation of drug solutions (dissolution in DMSO). In kind it is physicochemical. The conditions noted are these: stock solution preparation. How it is done:
as §1

A further series addresses T1, 5-HT transport sites (Rattus norvegicus, UniProt P31652).
T1 construct: striatum and frontal cortex dissected from frozen Sprague-Dawley rat brains (Pel-Freez, Rogers, Ark.); tissue Pel-Freez, Rogers, Ark; host or cells: rat frontal cortex membranes (Sprague-Dawley rat brain)
The series is described as follows: Displacement of [3H]paroxetine binding in membranes from rat frontal cortex. On the procedure: Binding of substituted pyrrolidine compounds at biogenic amine transporters was determined using striatum and frontal cortex dissected from frozen Sprague-Dawley rat brains (Pel-Freez, Rogers, Ark.). Affinities of the compounds at dopamine (DA) transport sites were determined by displacement of [^125I] 3 beta-(4-iodophenyl)tropan-2 beta-carboxylic acid methyl ester (RTI-55) binding in membranes from rat striatum, using 0.5 mg (original wet weight) of membranes and 10 pM [^125I]RTI-55. Non-specific binding was determined in the presence of 1 μM 2β-propanoyl-3β-(2-naphthyl) tropane (WF-23). Affinities of the compounds at 5-HT transport sites were determined by displacement of [^3H]paroxetine binding in membranes from rat frontal cortex, using 50 mg (original wet weight) of membranes and 0.4 nM [^3H]paroxetine. Non-specific binding was determined in the presence of 10 μM fluoxetine. Binding of the compounds at norepinephrine (NE) transport sites was determined by displacement of [^3H]nisoxetine binding in membranes from rat forebrain, using 0.7 nM [^3H]nisoxetine. Non-specific binding was determined in the presence of 1 μM desipramine.
Potencies in FIGS. 3 and 4 were calculated from displacement curves using 7-10 concentrations of unlabeled compounds, as analyzed by non-linear curve fitting. […]

Another series relates to ckr mouse. The series is described as follows: Validation of ckr mouse model with antipsychotics (hyperactivity and circling). In kind it is in vivo. The conditions noted are these: concentrations relevant to human clinical use. The source says:
The ckr mouse was serendipitously created as a result of a transgenic insertional mutation. […] The ckr mouse also appears to show reduced social interactions resembling the social withdrawal that is part of the constellation of negative symptoms of schizophrenia. The mouse also presents lateral ventricular enlargement, which may mirror neuropathological observations in schizophrenia.
The model has been further validated by testing risperidone, haloperidol and pimozide in the ckr mouse. The behavioral output was assayed by measuring the rate of hyperactivity and circling after administration. […] Based on the foregoing, the ckr mouse model is considered to be valid for evaluation of compounds for use in reducing the symptoms of neuropsychiatric disorders in mammals, including humans.

Molecules are shown by their SMILES. Entries after “also recorded” stand apart in the source; their conditions may differ. Where a name gives a salt, the structure may show the parent alone.

T1 sequence (P31652 whole entry): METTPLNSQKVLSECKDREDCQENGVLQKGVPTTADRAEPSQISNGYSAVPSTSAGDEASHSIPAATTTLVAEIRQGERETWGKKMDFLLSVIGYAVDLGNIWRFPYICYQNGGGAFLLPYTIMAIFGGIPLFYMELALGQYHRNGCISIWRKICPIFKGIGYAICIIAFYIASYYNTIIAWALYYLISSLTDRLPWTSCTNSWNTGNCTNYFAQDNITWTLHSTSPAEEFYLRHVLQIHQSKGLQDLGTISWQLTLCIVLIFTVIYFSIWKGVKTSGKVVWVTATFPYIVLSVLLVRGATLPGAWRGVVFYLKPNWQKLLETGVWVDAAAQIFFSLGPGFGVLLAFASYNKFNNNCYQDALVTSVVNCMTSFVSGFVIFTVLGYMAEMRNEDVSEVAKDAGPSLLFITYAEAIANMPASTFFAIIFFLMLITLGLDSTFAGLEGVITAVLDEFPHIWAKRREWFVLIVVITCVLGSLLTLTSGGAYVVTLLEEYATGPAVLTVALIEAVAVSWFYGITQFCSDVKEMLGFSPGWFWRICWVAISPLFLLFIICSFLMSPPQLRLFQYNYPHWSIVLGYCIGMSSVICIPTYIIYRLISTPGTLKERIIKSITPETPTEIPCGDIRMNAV

`COC(=O)[C@H](c1ccc2ccccc2c1)[C@@H]1C[C@@H](OC)CN1` [DC16, (R)-methyl 2-((2S,4R)-4-methoxypyrrolidin-2-yl)-2-(naphthalen-2-yl)acetate hydrochloride]: the overall biological activity entry with chakragati (ckr) mice (hydrochloride) is on record as “has biological activity; also recorded: favorable biological activity”. Further, the total distance moved result with chakragati (ckr) mice (ckr mice, 10 mg/kg intraperitoneal, 20 minutes after injection, monitored 15 min, vs vehicle (FIG. 1a)) was “trend towards decreased”. In the series on chakragati (ckr) mice (ckr mice, 10 mg/kg intraperitoneal, 20 minutes after injection, monitored 15 min, vs vehicle (FIG. 1b)), the velocity of movement result is reported as “trend towards decreased”. For the same compound, in the series with chakragati (ckr) mice (ckr mice, 10 mg/kg intraperitoneal, 20 minutes after injection, monitored 15 min, vs vehicle (FIG. 1c)), the time spent moving entry is reported as “trend towards a decrease”. Besides, in series [1], the “solubility in DMSO alone” value is on record as “difficult to dissolve in DMSO alone”.

Consider `COC(=O)[C@H](c1ccc(Cl)c(Cl)c1)[C@@H]1C[C@@H](O)CN1` [DC-17, (R)-methyl 2-(3,4-dichlorophenyl)-2-((2S,4R)-4-hydroxypyrrolidin-2-yl)acetate hydrochloride], for which the overall biological activity result in the series on chakragati (ckr) mice is listed as “favorable biological activity”. As for `COC(=O)[C@H](c1ccc2ccccc2c1)[C@@H]1C[C@@H](O)CN1.Cl` [HDMP-80, (R)-methyl 2-((2S,4R)-4-hydroxypyrrolidin-2-yl)-2-(naphthalen-2-yl)acetate hydrochloride], the “binding affinity for the serotonin transporter” value at 5-HT transport sites was “high binding affinity”. With `O=C(CCCN1CCC(O)(c2ccc(Cl)cc2)CC1)c1ccc(F)cc1` [haloperidol], the “hyperactivity in ckr mice” value in the series with ckr mouse is given as “dose-dependent attenuation”. Still for that read-out and setting: in the case of `Cc1nc2n(c(=O)c1CCN1CCC(c3noc4cc(F)ccc34)CC1)CCCC2` [risperidone] it was “dose-dependent attenuation”.
